Assay [1] has as its target T1, hP2X2/3H (Homo sapiens, UniProt P56373+Q9UBL9).
T1 construct: expressed in transfected cells; host or cells: e.g. HEK293 or 1321N1
T1 sequence (Q9UBL9 1-471): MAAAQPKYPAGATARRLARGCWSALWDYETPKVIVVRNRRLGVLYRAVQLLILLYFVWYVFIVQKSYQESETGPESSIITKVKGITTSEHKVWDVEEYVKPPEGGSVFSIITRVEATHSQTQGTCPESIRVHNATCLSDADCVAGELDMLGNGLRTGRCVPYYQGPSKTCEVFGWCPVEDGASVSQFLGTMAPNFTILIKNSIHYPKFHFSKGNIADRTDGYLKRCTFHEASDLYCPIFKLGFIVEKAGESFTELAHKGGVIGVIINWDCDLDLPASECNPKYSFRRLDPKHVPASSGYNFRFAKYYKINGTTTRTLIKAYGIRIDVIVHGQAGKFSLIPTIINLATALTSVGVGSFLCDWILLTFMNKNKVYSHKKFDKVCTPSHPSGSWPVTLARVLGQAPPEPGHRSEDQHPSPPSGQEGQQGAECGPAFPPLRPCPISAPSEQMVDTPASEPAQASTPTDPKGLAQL
T1 sequence (P56373 1-397): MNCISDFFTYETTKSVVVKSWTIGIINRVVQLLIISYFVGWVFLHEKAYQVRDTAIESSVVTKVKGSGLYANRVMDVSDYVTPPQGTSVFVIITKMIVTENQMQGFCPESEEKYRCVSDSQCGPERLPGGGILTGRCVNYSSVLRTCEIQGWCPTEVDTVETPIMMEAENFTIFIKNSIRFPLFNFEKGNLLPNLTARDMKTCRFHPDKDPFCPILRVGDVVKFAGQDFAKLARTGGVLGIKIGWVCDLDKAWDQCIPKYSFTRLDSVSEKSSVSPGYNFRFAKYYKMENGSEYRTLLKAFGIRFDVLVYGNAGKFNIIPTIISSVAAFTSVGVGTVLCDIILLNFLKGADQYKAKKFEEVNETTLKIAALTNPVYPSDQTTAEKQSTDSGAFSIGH
Nature of the assay: Calcium uptake assay (P2X antagonist assay), P2X2/3 heteromer. To be noted: hP2X2/3H. In kind it is cell-based. Put shortly:
(§1)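 Stably or transiently transfected HEK293 or 1321N1 cells; the heteromer is made by adding P2X3 to a P2X2-stable line, with heteromer function isolated pharmacologically. The peak-minus-baseline FLIPR calcium signal gives % inhibition and a 4-parameter-logistic IC50.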

For assay [2], the target named is T2, hP2X3 (Homo sapiens, UniProt P56373).
T2 construct: expressed in transfected cells; host or cells: e.g. HEK293 or 1321N1
T2 sequence (P56373 1-397): T1 sequence (P56373 1-397)
In words: Calcium uptake assay (P2X antagonist assay), P2X3 homomer. In kind it is cell-based. To be noted: hP2X3. The method, boiled down:
as §1

Setting [3] is: calcium uptake assay, read-out: IC50 hP2X2/3H (nM), Ca Influx.
The mark [4] stands for this setting: calcium uptake assay, read-out: IC50 hP2X3 (nM), Ca Influx.
Setting [5] is: Ca influx (calcium uptake assay), read-out: IC50 hP2X2/3H.
Where [6] appears, read: Ca influx (calcium uptake assay), read-out: IC50 hP2X3.

Read-outs that look alike come from different tables or passages of the source. A value given as a limit tells only on which side of the number the result lay.

Turning to `Cc1ccc(-c2cc(C(=O)NCc3ccc(C)nc3)cc(C(=O)N3CCCC3)c2)nc1` [Compound 122, 3-(5-Methylpyridin-2-yl)-N-((6-methylpyridin-3-yl)methyl)-5-(pyrrolidine-1-carbonyl)benzamide], the IC50 in assay [1] (setting [3]) and in assay [2] (setting [4]) was < 100 nM in each case.
Turning to `Cc1ccc(-c2cc(C(=O)NCc3ccc(C)nc3)cc(C(O)CN3CCN(C)CC3)c2)cc1` (centres unmarked) [Compound 366], the values for the IC50 in assay [1] (setting [5]) and in assay [2] (setting [6]) were 501 to 1000 nM and < 100 nM, respectively.
On the same counts, the results for `Cc1ccc(-c2cc(C(=O)N[C@H](CCO)c3ccc(C(F)(F)F)nc3)cc(S(C)(=O)=O)c2)cc1` [Compound 223] are 100 to 500 nM and < 100 nM.
Turning to `Cc1ccc(-c2cc(C(=O)N[C@H](C)c3cnc(C)nc3)cc(S(=O)(=O)N3CCCC3)c2)c(C#N)c1` [Compound 147], the IC50 in assay [1] (setting [3]) was > 1000 nM; in assay [2] (setting [4]), < 100 nM.
For the compound `Cc1ccc(-c2cc(C(=O)NCc3ccc(C)nc3)cc(C(=O)N(C)c3ccncc3)c2)cc1` [Compound 163, N3,4′-Dimethyl-N5-((6-methylpyridin-3-yl)methyl)-N3-(pyridin-4-yl)biphenyl-3,5-dicarboxamide], the IC50 in assay [1] (setting [3]) is 100 to 500 nM; in assay [2] (setting [4]) it was < 100 nM.
`Cc1ccc(-c2cc(C(=O)N[C@H](C)c3ccc(C)nc3)cc(C(O)c3nccs3)c2)nc1` (some centres unmarked) [Compound 291]: the IC50 in assay [1] (setting [5]) and in assay [2] (setting [6]) was < 100 nM throughout.
Turning to `Cc1ccc(-c2cc(Oc3nc(C)cs3)cc(C(=O)N[C@H](C)c3ccc(C)nc3)c2)nc1` [Compound 374], the IC50 in assay [1] (setting [5]) and in assay [2] (setting [6]) was < 100 nM in each case.
Take `Cc1ccc(-c2cc(C(=O)N[C@H](C)c3cnc(C)nc3)cc(C(O)c3ccccc3)c2)nc1` (some centres unmarked) [Compound 277]: the IC50 in assay [1] (setting [5]) and in assay [2] (setting [6]) was < 100 nM throughout.
`CCS(=O)(=O)c1cc(C(=O)NCc2cnc(C)nc2)cc(-c2ccc(C)cc2)c1` [Compound 212]: the IC50 in assay [1] (setting [5]) and in assay [2] (setting [6]) was < 100 nM in each case.
`Cc1ccc(-c2cc(C(=O)NCc3cnc(C)nc3)cc(C(=O)N3CCC3)c2)cc1` [Compound 30]: the IC50 in assay [1] (setting [3]) and in assay [2] (setting [4]) was < 100 nM in each case.
`Cc1ccc(-c2cc(C(=O)NCc3ccc(C(F)(F)F)nc3)cc(C(=O)N3CC[C@@H](O)C3)c2)nc1` [Compound 146]: the IC50 in assay [1] (setting [3]) and in assay [2] (setting [4]) was < 100 nM throughout.
For `Cc1ccc(-c2cc(Oc3nccs3)cc(C(=O)N[C@H](C)c3ccc(C)nc3)c2)cc1` [Compound 239], the IC50 in assay [1] (setting [5]) and in assay [2] (setting [6]) was < 100 nM in each case.
Consider `Cc1ccc(-c2cc(OC3CCOC3)cc(C(=O)N[C@H](C)c3ccc(C)nc3)c2)c(C#N)c1` (some centres unmarked) [Compound 314], for which the IC50 in assay [1] (setting [5]) and in assay [2] (setting [6]) was < 100 nM throughout.
With `COCC(C)Oc1cc(C(=O)N[C@H](C)c2ccc(C)nc2)cc(-c2ccc(C)cc2C#N)c1` (some centres unmarked) [Compound 316], the IC50 in assay [1] (setting [5]) and in assay [2] (setting [6]) was < 100 nM in each case.
As to `Cc1ccc(-c2cc(C(=O)N[C@H](C)c3ccc(C)nc3)cc(C(O)c3ccccn3)c2)cc1` (stereo partly drawn) [Compound 241, 5-(Hydroxy(pyridin-2-yl)methyl)-4′-methyl-N—((R)-1-(6-methylpyridin-3-yl)ethyl)biphenyl-3-carboxamide], the IC50 in assay [1] (setting [5]) and in assay [2] (setting [6]) was < 100 nM in each case.
As to `Cc1ccc(-c2cc(C(=O)NC(C)c3csc(C)n3)cc(C(=O)N3CCCC3)c2)cc1` (centres unmarked) [Compound 111, 4′-Methyl-N-(1-(2-methylthiazol-4-yl)ethyl)-5-(pyrrolidine-1-carbonyl)biphenyl-3-carboxamide], the IC50 in assay [1] (setting [3]) is 100 to 500 nM; in assay [2] (setting [4]) it was < 100 nM.
The like results for `Cc1ccc(-c2cc(C(=O)NCc3cccc(-n4cnnc4)c3)cc(C(=O)N3CCCC3)c2)cc1` [Compound 159] were, in that order, 100 to 500 nM and 100 to 500 nM.
Consider `Cc1ccc(-c2cc(Oc3ncccn3)cc(C(=O)N[C@H](C)c3ccc(C)nc3)c2)cc1` [Compound 232, (R)-4′-Methyl-N-(1-(6-methylpyridin-3-yl)ethyl)-5-(pyrimidin-2-yloxy)biphenyl-3-carboxamide], for which the IC50 in assay [1] (setting [5]) and in assay [2] (setting [6]) was < 100 nM in each case.
Regarding `Cc1ccc(-c2cc(C(=O)NCc3ccc(C)nc3)cc(C(=O)N3CC4CN(C)CC4C3)c2)cc1` (centres unmarked) [Compound 141], the IC50 in assay [1] (setting [3]) was 100 to 500 nM; in assay [2] (setting [4]) it was < 100 nM.
Consider `Cc1ccc(-c2cc(C(=O)N[C@H](C)c3ccc(C)nc3)cc(C(O)c3cncn3C)c2)cc1` (some centres unmarked) [Compound 330], for which the IC50 in assay [1] (setting [5]) and in assay [2] (setting [6]) was < 100 nM throughout.
In the case of `Cc1ccc(-c2cc(C(=O)NCc3cnc(C)nc3)cc(C(=O)N3CCCCCC3)c2)cc1` [Compound 19, 5-(Azepane-1-carbonyl)-4′-methyl-N-((2-methylpyrimidin-5-yl)methyl)biphenyl-3-carboxamide], the IC50 in assay [1] (setting [3]) and in assay [2] (setting [4]) was < 100 nM throughout.
Turning to `Cc1ccc(-c2cc(C(=O)N[C@H](C)c3cnc(C)nc3)cc(C(O)c3cncn3C)c2)cc1` (some centres unmarked) [Compound 354], the IC50 in assay [1] (setting [5]) and in assay [2] (setting [6]) was < 100 nM each time.
As to `Cc1ccc(-c2cc(OC3CNCC3O)cc(C(=O)N[C@H](C)c3ccc(C)nc3)c2)nc1` (some centres unmarked) [Compound 339], the IC50 is 100 to 500 nM in assay [1] (setting [5]) and < 100 nM in assay [2] (setting [6]).
On to `Cc1ccc(-c2cc(C(=O)N[C@H](C)c3cnc(C)nc3)cc(S(C)(=O)=O)c2)cc1` [Compound 116, (R)-4′-Methyl-N-(1-(2-methylpyrimidin-5-yl)ethyl)-5-(methylsulfonyl)biphenyl-3-carboxamide], for which the IC50 in assay [1] (setting [3]) and in assay [2] (setting [4]) was < 100 nM each time.
Consider `Cc1ccc(CNC(=O)c2cc(-c3ccc(C)c(C)c3)cc(S(C)(=O)=O)c2)cn1` [Compound 121], for which the IC50 in assay [1] (setting [3]) and in assay [2] (setting [4]) was > 1000 nM throughout.
For `Cc1ccc(-c2cc(C(=O)NCc3cnc(C)nc3)cc(C(=O)N3CCC(F)(F)C3)c2)cc1` [Compound 34, 5-(3,3-Difluoropyrrolidine-1-carbonyl)-4′-methyl-N-((2-methylpyrimidin-5-yl)methyl)biphenyl-3-carboxamide], the IC50 in assay [1] (setting [3]) and in assay [2] (setting [4]) was < 100 nM throughout.
Turning to `Cc1ccc(-c2cc(C(=O)NCc3cnc(C)nc3)cc(C(=O)N3CCCC3)c2)cc1` [Compound 20, 4′-Methyl-N-((2-methylpyrimidin-5-yl)methyl)-5-(pyrrolidine-1-carbonyl)biphenyl-3-carboxamide], the IC50 in assay [1] (setting [3]) and in assay [2] (setting [4]) was < 100 nM in each case.
As for `Cc1ccc(-c2cc(OCC3COCCO3)cc(C(=O)N[C@H](C)c3ccc(C)nc3)c2)c(C#N)c1` (some centres unmarked) [Compound 317], the IC50 in assay [1] (setting [5]) and in assay [2] (setting [6]) was < 100 nM in each case.
Consider `Cc1ccc(-c2cc(C(=O)NCc3ccn4ccnc4c3)cc(C(=O)N(C)CC(C)C)c2)cc1` [Compound 11, N3-(Imidazo[1,2-a]pyridin-7-ylmethyl)-N5-isobutyl-N5,4′-dimethylbiphenyl-3,5-dicarboxamide], for which the figures for the IC50 in assay [1] (setting [3]) and in assay [2] (setting [4]) were 100 to 500 nM and < 100 nM, respectively.
As for `Cc1ccc(-c2cc(C(=O)N[C@H](C)c3cnc(C)nc3)cc(C(O)c3nccs3)c2)nc1` (some centres unmarked) [Compound 292], the IC50 in assay [1] (setting [5]) and in assay [2] (setting [6]) was < 100 nM in each case.
In the case of `Cc1ccc(-c2cc(C(=O)N[C@H](C)c3ccc(C)nc3)cc(C(O)c3ccccn3)c2)nc1` (some centres unmarked) [Compound 287], the IC50 in assay [1] (setting [5]) and in assay [2] (setting [6]) was < 100 nM in each case.

Source of the values: US8946439B2, “Amide compounds, compositions and uses thereof” (Evotec AG, priority 2008, dated 2015).
